These are literature values, as cited in patent US8575172B2 (Zysis Limited, priority 2006, dated 2013).

For one data set, the target named is T1, 5-HT1A receptor (Homo sapiens, UniProt P08908).
T1 sequence (P08908 1-422): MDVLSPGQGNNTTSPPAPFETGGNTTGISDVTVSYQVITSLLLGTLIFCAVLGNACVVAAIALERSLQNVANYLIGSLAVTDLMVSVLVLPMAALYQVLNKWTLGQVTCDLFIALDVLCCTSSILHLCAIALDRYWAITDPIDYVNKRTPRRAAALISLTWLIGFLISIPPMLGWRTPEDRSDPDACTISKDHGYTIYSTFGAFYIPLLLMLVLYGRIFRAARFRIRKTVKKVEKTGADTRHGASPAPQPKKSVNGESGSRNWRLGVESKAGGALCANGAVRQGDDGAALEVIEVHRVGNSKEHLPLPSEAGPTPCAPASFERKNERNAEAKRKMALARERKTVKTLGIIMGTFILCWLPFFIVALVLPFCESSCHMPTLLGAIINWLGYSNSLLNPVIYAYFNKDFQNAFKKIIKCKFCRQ

A further data set deals with 5-HT2A receptor (Homo sapiens, UniProt P28223).
Chain of 5-HT2A receptor (P28223 whole entry): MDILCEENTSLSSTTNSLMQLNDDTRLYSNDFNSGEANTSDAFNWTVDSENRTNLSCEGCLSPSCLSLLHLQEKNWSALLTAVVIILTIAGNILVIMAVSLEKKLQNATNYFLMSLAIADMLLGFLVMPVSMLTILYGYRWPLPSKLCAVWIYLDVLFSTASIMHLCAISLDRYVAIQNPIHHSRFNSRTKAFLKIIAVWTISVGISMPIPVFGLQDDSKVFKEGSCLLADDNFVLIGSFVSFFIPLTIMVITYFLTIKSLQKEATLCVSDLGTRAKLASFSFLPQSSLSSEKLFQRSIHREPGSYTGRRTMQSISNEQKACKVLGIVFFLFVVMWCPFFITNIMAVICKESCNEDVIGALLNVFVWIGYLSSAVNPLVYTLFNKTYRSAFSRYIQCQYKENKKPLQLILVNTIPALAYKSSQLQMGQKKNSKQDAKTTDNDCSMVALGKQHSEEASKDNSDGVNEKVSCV
The test system of data set [1] is alpha adrenergic receptors.
Data set [2] concerns cholinergic muscarinic receptors.
The next data set addresses CYP2D6 (Homo sapiens, UniProt P10635).
The conditions of data set [3]: single oral dose.
Where [4] appears, read: CYP2D6 poor vs extensive metabolizers.

Read-outs that look alike come from different tables or passages of the source.

Chain of CYP2D6 (P10635 whole entry): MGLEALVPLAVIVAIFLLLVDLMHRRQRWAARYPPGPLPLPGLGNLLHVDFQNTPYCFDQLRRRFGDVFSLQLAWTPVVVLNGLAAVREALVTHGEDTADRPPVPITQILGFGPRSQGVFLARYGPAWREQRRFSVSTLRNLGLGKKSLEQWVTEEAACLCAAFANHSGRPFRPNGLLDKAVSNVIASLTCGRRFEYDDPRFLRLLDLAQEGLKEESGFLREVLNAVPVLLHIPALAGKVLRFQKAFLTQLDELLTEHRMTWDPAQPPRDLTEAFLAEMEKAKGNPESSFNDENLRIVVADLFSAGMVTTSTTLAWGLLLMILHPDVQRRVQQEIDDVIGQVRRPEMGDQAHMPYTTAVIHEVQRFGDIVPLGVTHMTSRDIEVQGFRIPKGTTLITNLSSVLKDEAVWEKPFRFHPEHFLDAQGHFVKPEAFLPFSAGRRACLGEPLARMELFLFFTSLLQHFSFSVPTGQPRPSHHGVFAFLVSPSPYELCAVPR

On to `O=C1CCc2ccc(OCCCCN3CCN(c4cccc(Cl)c4Cl)CC3)cc2N1` [aripiprazole, 7-[4-[4-(2,3-dichlorophenyl)piperazin-1-yl]butoxy]-3,4-dihydro-1H-quinolin-2-one], for which, for the setting “CYP2D6 extensive metabolizers (EMs)”, the mean elimination half-life entry is listed as “about 75 hours”. Besides, the mean elimination half-life (CYP2D6 poor metabolizers (PMs)) is around 146 h. Moreover, the “increase in aripiprazole exposure in PMs compared to EMs” value under setting [4] is around 80%. Moreover, the absorption result (administered orally as the solution) is listed as “well absorbed”. Further, the absorption result (after administration of the IR tablet) is reported as “well absorbed”. Moreover, the “higher exposure to the total active moieties in PMs compared to EMs” value (from a given dose of aripiprazole) is on record as around 60%. Further, where the note is “in vivo”, the mean elimination half-life result is listed as “about 75 hours” and the “pharmacokinetics at steady state” value is on record as “dose-proportional”. Also, the “activity at the 5-HT1A receptor” value on 5-HT1A receptor is “partial agonist”. Further, the “profile at the 5-HT2A receptor” value at 5-HT2A receptor was “antagonist”. In addition, the “affinity for histamine receptors” value in the data set on histamine receptors is reported as “moderate affinity”. Further, the “affinity for alpha adrenergic receptors” value in data set [1] is recorded as “moderate affinity”. Further, in data set [2], the “affinity for cholinergic muscarinic receptors” value is given as “no appreciable affinity”. The “effect on the CYP2D6 pathway” value at CYP2D6 is given as “does not inhibit or induce”. In data set [3], the “oral dose recovered unchanged in the feces” value is “approximately 18%” and the “unchanged aripiprazole excreted in the urine” value is reported as “Less than 1%”. In data set [3] ([14C]-labeled), the “administered radioactivity recovered in the feces” value is recorded as around 55% and the “administered radioactivity recovered in the urine” value was “approximately 25%”.
As for `O=c1ccc2ccc(OCCCCN3CCN(c4cccc(Cl)c4Cl)CC3)cc2[nH]1` [dehydro-aripiprazole], the “decrease in exposure to the active metabolite in PMs compared to EMs” value under setting [4] is given as around 30%. In addition, the “share of aripiprazole AUC in plasma” value (at steady state) is listed as “about 40%”. Also, where the note is “in vivo”, the mean elimination half-life was around 94 h and the “share of the parent drug exposure in plasma” value is 40%.
